Patent EP0465481B1, “NEW S[…] DERIVATIVES OF TEICOPLANIN” (GRUPPO LEPETIT S.p.A., priority 1989, dated 1990)

System: Pseudomonas aeruginosa
Experiment: MIC, standard two-fold dilution test in microtiter
Format: cell-based
Settings: against Pseudomonas aeruginosa
Protocol: Broth cultures are diluted enough so that the final inoculum is about 10^4 colony forming units/ml (CFU/mi).

teicoplanin was tested, and the MIC was at least 32 microgram/ml.
